Laboratory results: US11252963B2, “Pesticidally active pyrazole derivatives” (SYNGENTA PARTICIPATIONS AG, priority 2017, dated 2022)
Like-named read-outs stand apart in the source and are kept apart here.

Key:
Format in all cases: in vivo
[1] = test system: Diabrotica balteata (Corn root worm); assay: Diabrotica balteata (Corn root worm) mortality test on sprayed maize sprouts; conditions: 96 h
Procedure: Diabrotica balteata (Corn root worm):
Maize sprouts placed onto an agar layer in 24-well microtiter plates were treated with aqueous test solutions prepared from 10′000 ppm DMSO stock solutions by spraying. After drying, the plates were infested with L2 larvae (6 to 10 per well). The samples were assessed for mortality 4 days after infestation.

[2] = test system: Spodoptera littoralis (Egyptian Cotton Leaf Worm); assay: Spodoptera littoralis (Egyptian Cotton Leaf Worm): feeding/contact activity; conditions: foliar, 72 h
Procedure: Spodoptera littoralis (Egyptian Cotton Leaf Worm): Feeding/Contact Activity
(§1) Cotton leaf discs were placed onto agar in 24-well microtiter plates and sprayed with aqueous test solutions prepared from 10′000 ppm DMSO stock solutions. After drying the leaf discs were infested with five L1 larvae. The samples were assessed for mortality 3 days after infestation.

[3] = test system: Tetranychus urticae (Two-Spotted Spider Mite); assay: Tetranychus urticae (Two-Spotted Spider Mite): feeding/contact activity; conditions: foliar, 192 h, read-out: mortality on mixed population (mobile stages)
Procedure: Tetranychus urticae (Two-Spotted Spider Mite): Feeding/Contact Activity
as §1, with “Bean” for “Cotton”, “on” for “were placed onto”, “were” for “and”, “a mite population of mixed ages.” for “five L1 larvae.”, “on mixed population (mobile stages) 8” for “3”

[4] = test system: Euschistus heros (Neotropical Brown Stink Bug); assay: Euschistus heros (Neotropical Brown Stink Bug): feeding/contact activity; conditions: 120 h
Procedure: Euschistus heros (Neotropical Brown Stink Bug): Feeding/Contact Activity
Soybean leaves on agar in 24-well microtiter plates were sprayed with aqueous test solutions prepared from 10,000 ppm DMSO stock solutions. After drying the leaves were infested with N2 nymphs. The samples were assessed for mortality 5 days after infestation.

[5] = test system: Thrips tabaci (Onion Thrips); assay: Thrips tabaci (Onion Thrips): feeding/contact activity; conditions: foliar, 144 h
Procedure: Thrips tabaci (Onion Thrips): Feeding/Contact Activity
as §1, with “Sunflower” for “Cotton”, “on” for “onto”, “a thrips population of mixed ages.” for “five L1 larvae.”, “6” for “3”

[6] = test system: Myzus persicae (Green Peach Aphid); assay: Myzus persicae (Green Peach Aphid): feeding/contact activity; conditions: foliar, 144 h
Procedure: Myzus persicae (Green Peach Aphid): Feeding/Contact Activity
Sunflower leaf discs were placed onto agar in a 24-well microtiter plate and sprayed with aqueous test solutions prepared from 10,000 ppm DMSO stock solutions. After drying, the leaf discs were infested with an aphid population of mixed ages. The samples were assessed for mortality 6 days after infestation.

[7] = test system: Plutella xylostella (Diamond Back Moth); assay: Plutella xylostella (Diamond Back Moth): feeding/contact activity; conditions: 120 h
Procedure: Plutella xylostella (Diamond Back Moth): Feeding/Contact Activity
24-well microtiter plates with artificial diet were treated with aqueous test solutions prepared from 10′000 ppm DMSO stock solutions by pipetting. After drying, the plates were infested with L2 larvae (10 to 15 per well). The samples were assessed for mortality 5 days after infestation.

[8] = application rate 200 ppm, maize sprouts sprayed, L2 larvae, assessed 4 days after infestation, read-out: mortality
[9] = application rate 200 ppm, cotton leaf discs sprayed, L1 larvae, assessed 3 days after infestation, read-out: mortality
[10] = application rate 200 ppm, bean leaf discs sprayed, mite population of mixed ages, assessed 8 days after infestation
[11] = application rate 200 ppm, soybean leaves sprayed, N2 nymphs, assessed 5 days after infestation, read-out: mortality
[12] = application rate 200 ppm, sunflower leaf discs sprayed, thrips population of mixed ages, assessed 6 days after infestation, read-out: mortality
[13] = application rate 200 ppm, sunflower leaf discs sprayed, aphid population of mixed ages, assessed 6 days after infestation, read-out: mortality
[14] = application rate 200 ppm, artificial diet treated by pipetting, L2 larvae, assessed 5 days after infestation, read-out: mortality

Measured: mortality at 200 ppm

COCN(C(=O)c1cc(-c2cnn(-c3c(OC(F)F)c(C(F)(F)C(F)(F)F)nn3C)c2)ccc1Cl)C1(C#N)CC1 [Compound 1, 2-chloro-N-(1-cyanocyclopropyl)-5-[1-[4-(difluoromethoxy)-2-methyl-5-(1,1,2,2,2-pentafluoroethyl)pyrazol-3-yl]pyrazol-4-yl]-N-(methoxymethyl)benzamide]
≥ 80%: [1]; [8] | [2]; [9] | [3]; [10] | [4]; [11] | [5]; [12] | [6]; [13] | [7]; [14]

C#CCN(C(=O)c1cc(-c2cnn(-c3c(OC(F)F)c(C(F)(F)C(F)(F)F)nn3C)c2)ccc1Cl)C1CC1 [Compound 2, 2-chloro-N-cyclopropyl-5-[1-[4-(difluoromethoxy)-2-methyl-5-(1,1,2,2,2-pentafluoroethyl)pyrazol-3-yl]pyrazol-4-yl]-N-prop-2-ynyl-benzamide]
≥ 80%: [1]; [8] | [2]; [9] | [3]; [10] | [4]; [11] | [5]; [12] | [6]; [13] | [7]; [14]

Cn1nc(C(F)(F)C(F)(F)F)c(OC(F)F)c1-n1cc(-c2ccc(Cl)c(C(=O)N(CC#N)C3(C#N)CC3)c2)cn1 [Compound 3, 2-chloro-N-(1-cyanocyclopropyl)-N-(cyanomethyl)-5-[1-[4-(difluoromethoxy)-2-methyl-5-(1,1,2,2,2-pentafluoroethyl)pyrazol-3-yl]pyrazol-4-yl]benzamide]
≥ 80%: [1]; [8] | [2]; [9] | [3]; [10] | [4]; [11] | [5]; [12] | [6]; [13] | [7]; [14]

CC(C)OC(=O)N(C(=O)c1cc(-c2cnn(-c3c(OC(F)F)c(C(F)(F)C(F)(F)F)nn3C)c2)ccc1Cl)C1(C#N)CC1 [Compound 5, isopropyl N-[2-chloro-5-[1-[4-(difluoromethoxy)-2-methyl-5-(1,1,2,2,2-pentafluoroethyl)pyrazol-3-yl]pyrazol-4-yl]benzoyl]-N-(1-cyanocyclopropyl)carbamate]
≥ 80%: [1] | [2] | [3] | [4]; in Glycine max | [5] | [6] | [7]

CCOC(=O)N(C(=O)c1cc(-c2cnn(-c3c(OC(F)F)c(C(F)(F)C(F)(F)F)nn3C)c2)ccc1Cl)C1(C#N)CC1 [Compound 6, ethyl N-[2-chloro-5-[1-[4-(difluoromethoxy)-2-methyl-5-(1,1,2,2,2-pentafluoroethyl)pyrazol-3-yl]pyrazol-4-yl]benzoyl]-N-(1-cyanocyclopropyl)carbamate]
≥ 80%: [1] | [2] | [3] | [4]; in Glycine max | [5] | [6] | [7]

COC(=O)N(C(=O)c1cc(-c2cnn(-c3c(OC(F)F)c(C(F)(F)C(F)(F)F)nn3C)c2)ccc1Cl)C1(C#N)CC1 [Compound 7, methyl N-[2-chloro-5-[1-[4-(difluoromethoxy)-2-methyl-5-(1,1,2,2,2-pentafluoroethyl)pyrazol-3-yl]pyrazol-4-yl]benzoyl]-N-(1-cyanocyclopropyl)carbamate]
≥ 80%: [1] | [2] | [3] | [4]; in Glycine max | [6] | [7]

CC(=O)N(C(=O)c1cc(-c2cnn(-c3c(OC(F)F)c(C(F)(F)C(F)(F)F)nn3C)c2)ccc1Cl)C1(C#N)CC1 [Compound 8, N-acetyl-2-chloro-N-(1-cyanocyclopropyl)-5-[1-[4-(difluoromethoxy)-2-methyl-5-(1,1,2,2,2-pentafluoroethyl)pyrazol-3-yl]pyrazol-4-yl]benzamide]
≥ 80%: [1]; [8] | [2]; [9] | [3]; [10] | [4]; [11] | [6]; [13] | [7]; [14]

Cn1nc(C(F)(F)C(F)(F)F)c(OC(F)F)c1-n1cc(-c2ccc(Cl)c(C(=O)N(CC3CC3)C3(C#N)CC3)c2)cn1 [Compound 9, 2-chloro-N-(1-cyanocyclopropyl)-N-(cyclopropylmethyl)-5-[1-[4-(difluoromethoxy)-2-methyl-5-(1,1,2,2,2-pentafluoroethyl)pyrazol-3-yl]pyrazol-4-yl]benzamide]
≥ 80%: [1]; [8] | [2]; [9] | [3]; [10] | [4]; [11] | [5]; [12] | [6]; [13] | [7]; [14]

Cn1nc(C(F)(F)C(F)(F)F)c(OC(F)F)c1-n1cc(-c2ccc(Cl)c(C(=O)N(CC(F)(F)F)C3(C#N)CC3)c2)cn1 [Compound 10, 2-chloro-N-(1-cyanocyclopropyl)-5-[1-[4-(difluoromethoxy)-2-methyl-5-(1,1,2,2,2-pentafluoroethyl)pyrazol-3-yl]pyrazol-4-yl]-N-(2,2,2-trifluoroethyl)benzamide]
≥ 80%: [1]; [8] | [2]; [9] | [5]; [12] | [6]; [13] | [7]; [14]

CC(C)CN(C(=O)c1cc(-c2cnn(-c3c(OC(F)F)c(C(F)(F)C(F)(F)F)nn3C)c2)ccc1Cl)C1(C#N)CC1 [Compound 11, 2-chloro-N-(1-cyanocyclopropyl)-5-[1-[4-(difluoromethoxy)-2-methyl-5-(1,1,2,2,2-pentafluoroethyl)pyrazol-3-yl]pyrazol-4-yl]-N-isobutyl-benzamide]
≥ 80%: [1]; [8] | [2]; [9] | [4]; [11] | [5]; [12] | [6]; [13] | [7]; [14]

CC(C)C(=O)N(C(=O)c1cc(-c2cnn(-c3c(OC(F)F)c(C(F)(F)C(F)(F)F)nn3C)c2)ccc1Cl)C1(C#N)CC1 [Compound 12, 2-chloro-N-(1-cyanocyclopropyl)-5-[1-[4-(difluoromethoxy)-2-methyl-5-(1,1,2,2,2-pentafluoroethyl)pyrazol-3-yl]pyrazol-4-yl]-N-(2-methylpropanoyl)benzamide]
≥ 80%: [1]; [8] | [2]; [9] | [3]; [10] | [4]; [11] | [6]; [13] | [7]; [14]

CCOCN(C(=O)c1cc(-c2cnn(-c3c(OC(F)F)c(C(F)(F)C(F)(F)F)nn3C)c2)cnc1Cl)C1(C#N)CC1 [Compound 14, 2-chloro-N-(1-cyanocyclopropyl)-5-[1-[4-(difluoromethoxy)-2-methyl-5-(1,1,2,2,2-pentafluoroethyl)pyrazol-3-yl]pyrazol-4-yl]-N-(ethoxymethyl)pyridine-3-carboxamide]
≥ 80%: [1]; [8] | [2]; [9] | [3]; [10] | [4]; [11] | [5]; [12] | [6]; [13] | [7]; [14]
